According to patent US4593043A, “Mercapto acyl-carnitines and pharmaceutical compositions containing same” (Sigma-Tau Industrie Farmaceutiche Riunite S.p.A., priority 1981, dated 1986):
Structures can show the parent of a compound that is named as a salt.

What was measured:
[1] = Mucolytic activity in vitro on human sputum (thromboelastograph, method of Morandini et al.); settings: for Percentage drop ± s.e. of the tracing versus maximum peak (mucolytic activity index), dilution 1/30: 1 ml of a 10% solution at dilution 1/30; for Percentage drop ± s.e. of the tracing versus maximum peak (mucolytic activity index), dilution 1/60: 1 ml of a 10% solution at dilution 1/60
Description: The tests were carried out in vitro by using the method disclosed by Morandini et al. (Lotta contro la tubercolosi 47, n. 4, 1977). A thromboelastograph was used to follow the variations induced by the compounds of general formula (I) and acetylcisteine on the rheological properties of human sputum.

bronchial secretion = test: Expectorant activity (bronchial secretion), method of Perry et al.; assay type: in vivo, male rabbits; settings: rabbits; for Percentage variations of bronchial secretion, 1 hour: 1 hour after administration; for Percentage variations of bronchial secretion, 2 hours: 2 hours after administration; for Percentage variations of bronchial secretion, 4 hours: 4 hours after administration
Description: The tests were carried out on male rabbits, weighing 2-3 Kg, anesthetized with ethyl urethane, by following the method disclosed by Perry et al. (J. Pharm. Exp. Ther. 73, 65, 1941).
Each cannula was connected to a feeding device which delivered a steady flow-rate of pre-heated air (36°-38° C.) at constant humidity (80%). At the lower end of each cannula, a graduated cylinder was fitted, wherein the bronchial secretion was collected. All of the animals breathed spontaneously and consequently they self-regulated the air intake suitable for normal respiration. […] Each dose of drug was administered to 5 animals. The control animals (8) were given water only. The amount of secretion was determined after 1, 2 and 4 hours from administration.

[2] = Acute toxicity in the mouse, Weil method; settings: in vivo, ip
Excerpt: The acute toxicity of the compounds of general formula (I) has been studied in the mouse with the Weil method (Weil C. S., Biometer. J. 8, 249, 1952).
The LD50 values of some compounds illustrated in Table I, indicate that the compounds are remarkably well tolerated. PG,20
general formula (I). Weil's method (N = 5, K = 4) Cl = hydro-

[3] = tested on: damage provoked by irradiation in rats; test: Protection against X-ray exposure (survival after irradiation); assay type: in vivo, Albino Wister rats; settings: 30-40 mg Kg^-1 1 hour before irradiation and 15 mg Kg^-1 per day in the subsequent 20 days
Description: The effect of the compounds of formula (I) towards the damages provoked by X-ray exposure was studied.
The experiment animals, Albino Wister rats, treated with the compounds under examination (30-40 mg Kg^-1 1 hour before irradiation and 15 mg Kg^-1 per day in the subsequent 20 days) were irradiated and checked over a time period to detect the onset of toxic effects and the time of survival with respect to the control group. […]

[4] = tested on: burned cutaneous area of the back; test: Cutaneous regeneration from burns; assay type: in vivo; settings: rabbits, oral, 20 mg Kg^-1 once a day for seven days; for Percentage of regenerated tissue, 4th day: 4th day from treatment; for Percentage of regenerated tissue, 8th day: 8th day from treatment
Description: The ability of the compounds of formula (I) to speed up the cutaneous regeneration from burns has been tested in rabbits.
A 4 cm^2 cutaneous area of the average-top zone of the test animal back was burned.
The compounds were orally administered in aqueous solution at the dose of 20 mg Kg^-1 once a day for seven days. The area of cutaneous regeneration, i.e. the area of the newly formed tissue was then measured (Table III).

[5] = mice, ep, Weil's method (N = 5, K = 4)

CC(=O)N[C@@H](CS)C(=O)O [Acetylcysteine, reference compound]
Percentage drop ± s.e. of the tracing versus maximum peak (mucolytic activity index), dilution 1/30 [1]: 75.7 ± 7%
Percentage drop ± s.e. of the tracing versus maximum peak (mucolytic activity index), dilution 1/60 [1]: 22.3 ± 4%

CCC(S)C(=O)OC(CC(=O)O)C[N+](C)(C)C (stereo not shown) [2-mercapto butyryl carnitine Cl]
Percentage variations of bronchial secretion, 1 hour (bronchial secretion; 15 mg oral): +0.5%
Percentage variations of bronchial secretion, 2 hours (bronchial secretion; 15 mg oral): +0.9%
Percentage variations of bronchial secretion, 4 hours (bronchial secretion; 15 mg oral): +2.3%
LD50 [2]: 294 mg/kg
Percentage of surviving animals [3]: 70%
Percentage of surviving animals, day 10 from irradiation [3]: 100%
Percentage of surviving animals, day 20 from irradiation [3]: 85%
Percentage drop ± s.e. of the tracing versus maximum peak (mucolytic activity index), dilution 1/30 [1]: 85.3 ± 4%
Percentage drop ± s.e. of the tracing versus maximum peak (mucolytic activity index), dilution 1/60 [1]: 38.4 ± 5%
Percentage of regenerated tissue, 4th day [4]: 35%
Percentage of regenerated tissue, 8th day [4]: 95%

C[N+](C)(C)CC(CC(=O)O)OC(=O)CCCS (stereo not shown) [4-mercapto butyryl carnitine Cl, 4-mercapto butyryl carnitine hydrochloride]
Percentage variations of bronchial secretion, 1 hour (bronchial secretion; 20 mg oral): +0.4%
Percentage variations of bronchial secretion, 2 hours (bronchial secretion; 20 mg oral): +0.6%
Percentage variations of bronchial secretion, 4 hours (bronchial secretion; 20 mg oral): +1.2%
LD50 [2, 5]: 303 mg/kg
Percentage of surviving animals [3]: 55%
Percentage of surviving animals, day 10 from irradiation [3]: 100%
Percentage of surviving animals, day 20 from irradiation [3]: 80%
Percentage of regenerated tissue, 4th day [4]: 25%
Percentage of regenerated tissue, 8th day [4]: 70%

C[N+](C)(C)CC(CC(=O)O)OC(=O)CCS (stereo not shown) [3-mercapto propionyl carnitine Cl, 3-mercapto propionyl carnitine hydrochloride]
Percentage variations of bronchial secretion, 1 hour (bronchial secretion; 15 mg oral): -0.2%
Percentage variations of bronchial secretion, 2 hours (bronchial secretion; 15 mg oral): +0.4%
Percentage variations of bronchial secretion, 4 hours (bronchial secretion; 15 mg oral): +1.1%
LD50 [2, 5]: 312 mg/kg
Percentage of surviving animals [3]: 60%
Percentage of surviving animals, day 10 from irradiation [3]: 90%
Percentage of surviving animals, day 20 from irradiation [3]: 80%
Percentage of regenerated tissue, 4th day [4]: 40%
Percentage of regenerated tissue, 8th day [4]: 80%

CC(S)C(=O)OC(CC(=O)O)C[N+](C)(C)C (stereo not shown) [2-mercapto propionyl carnitine Cl]
Percentage variations of bronchial secretion, 1 hour (bronchial secretion; 10 mg oral): +0.1%
Percentage variations of bronchial secretion, 2 hours (bronchial secretion; 10 mg oral): +0.2%
Percentage variations of bronchial secretion, 4 hours (bronchial secretion; 10 mg oral): +2.0%
LD50 [2]: 294 mg/kg
Percentage of surviving animals [3]: 45%
Percentage of surviving animals, day 10 from irradiation [3]: 80%
Percentage of surviving animals, day 20 from irradiation [3]: 70%
Percentage drop ± s.e. of the tracing versus maximum peak (mucolytic activity index), dilution 1/30 [1]: 85.4 ± 6%
Percentage drop ± s.e. of the tracing versus maximum peak (mucolytic activity index), dilution 1/60 [1]: 46.5 ± 6%
Percentage of regenerated tissue, 4th day [4]: 30%
Percentage of regenerated tissue, 8th day [4]: 65%

C[N+](C)(C)CC(CC(=O)O)OC(=O)CCCCS (stereo not shown) [5-mercapto valeryl carnitine Cl]
Percentage variations of bronchial secretion, 1 hour (bronchial secretion; 15 mg oral): +0.6%
Percentage variations of bronchial secretion, 2 hours (bronchial secretion; 15 mg oral): -0.3%
Percentage variations of bronchial secretion, 4 hours (bronchial secretion; 15 mg oral): +1.4%
LD50 [2]: 281 mg/kg
Percentage of surviving animals [3]: 50%
Percentage of surviving animals, day 10 from irradiation [3]: 95%
Percentage of surviving animals, day 20 from irradiation [3]: 70%
Percentage drop ± s.e. of the tracing versus maximum peak (mucolytic activity index), dilution 1/30 [1]: 90.3 ± 6%
Percentage drop ± s.e. of the tracing versus maximum peak (mucolytic activity index), dilution 1/60 [1]: 48.3 ± 6%
Percentage of regenerated tissue, 4th day [4]: 20%
Percentage of regenerated tissue, 8th day [4]: 60%

C[N+](C)(C)CC(CC(=O)O)OC(=O)CS (stereo not shown) [mercapto acetyl carnitine Cl]
Percentage variations of bronchial secretion, 1 hour (bronchial secretion; 10 mg oral): +0.3%
Percentage variations of bronchial secretion, 2 hours (bronchial secretion; 10 mg oral): +0.9%
Percentage variations of bronchial secretion, 4 hours (bronchial secretion; 10 mg oral): +2.4%
LD50 [2]: 308 mg/kg
Percentage of surviving animals [3]: 30%
Percentage of surviving animals, day 10 from irradiation [3]: 85%
Percentage of surviving animals, day 20 from irradiation [3]: 45%
Percentage drop ± s.e. of the tracing versus maximum peak (mucolytic activity index), dilution 1/30 [1]: 78.3 ± 5%
Percentage drop ± s.e. of the tracing versus maximum peak (mucolytic activity index), dilution 1/60 [1]: 45.2 ± 4%
Percentage of regenerated tissue, 4th day [4]: 35%
Percentage of regenerated tissue, 8th day [4]: 70%
